Measured values from US12258338B2, “Modulators of the integrated stress response pathway” (EVOTEC INTERNATIONAL GMBH, priority 2019, dated 2025).
Where two headings read alike, the source gives them in different places.

Test system: ATF4
Assay: HEK-ATF4 High Content Imaging assay (prevention of Tunicamycin induced ISR; ATF4 signal ratio between nucleus and cytoplasm)
Assay type: cell-based
How it was run: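 Wild-type HEK293 cells in 0.3% FBS medium were co-treated with compounds and Tunicamycin (3.3 μM in prediluted medium, 11-fold over final) for 6 h at 37 °C. Fixed cells were immunostained for ATF4 with Hoechst nuclei; imaging gave nuclear/cytoplasmic ATF4 ratio, with nuclei counts as toxicity control.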

[1] = Homo sapiens, Wild-type HEK293 cells, Tunicamycin induced ISR, 6 h, read-out: IIEK-ATF4 Activity
[2] = Table 24 category key, read-out: HEK-ATF4 Activity*

IC50 [1]	IC50 [2]	Structure (SMILES)
1 to 500 nM	1 to 500 nM	O=C(COc1ccc(Cl)c(F)c1)N[C@H]1CC[C@H](c2nnc([C@H]3C[C@@H](OC(F)(F)F)C3)o2)NC1 [Example 50, 2-(4-chloro-3-fluorophenoxy)-N-[(3S,6R)-6-{5-[(1s,3s)-3-(trifluoromethoxy)cyclobutyl]-1,3,4-oxadiazol-2-yl}piperidin-3-yl]acetamide]
2000 to 15000 nM	500 to 2000 nM	O=C(COc1ccc(Cl)c(F)c1)N[C@H]1CC[C@H](c2nnc(COC(F)(F)F)o2)NC1 [Example 61, 2-(4-chloro-3-fluorophenoxy)-N-[(3S,6R)-6-(5-[(trifluoromethoxy)methyl]-1,3,4-oxadiazol-2-yl}piperidin-3-yl]acetamide]
